Among the data in patent EP1144412B1, “IMMUNOSUPPRESSIVE EFFECTS OF PTERIDINE DERIVATIVES” (4 AZA Bioscience nv, priority 1998, dated 2000) are IC50 values, retold here.

For assay [1], the system named is Peripheral blood mononuclear cells (PBMC). Kind of assay: Mixed lymphocyte reaction (MLR), [3H]-thymidine incorporation. It is filed as cell-based. The settings on record: Homo sapiens. From the text: (§1) Various models may be used for testing an immunosuppressive effect. In vivo, for example, different transplantation models are available. They are strongly influenced by different immunogenicities, depending on the donor and recipient species used and depending on the nature of the transplanted organ. The survival time of transplanted organs can thus be used to measure the suppression of the immune response. In vitro, there exist also various models. The most used are lymphocyte activation tests. Usually activation is measured via lymphocyte proliferation. Inhibition of proliferation thus always means immunosuppression under the experimental conditions applied. There exist different stimuli for lymphocyte activation: • coculture of lymphocytes of […] (MLR = mixed lymphocyte reaction): lymphocytes expressing different minor and major antigens of the HLA-DR type (= alloantigens) activate each other non-specifically. • CD3 assay: here there is an activation of the T-lymphocytes via an exogenously added antibody (OKT3). This antibody reacts against the CD3 molecule located on the lymphocyte membrane. This molecule has a costimulatory function. […] This molecule is also located on the lymphocyte membrane, and delivers strong costimulatory signals.
Peripheral blood mononuclear cells (PBMC) were isolated from heparinized peripheral blood by density gradient centrifugation over Lymphoprep (Nycomed, Maorstua, Norway). Allogeneic PBMC or EBV-transformed human B cells [RPMI1788 (ATCC name CCL156)] which strongly express B7-1 and B7-2 were used as stimulator cells after irradiation with 30 Gy. MLR was performed in triplicate wells. After 5 days incubation at 37EC, 1 µCi [^3H]-thymidine was added to each cup. After a further 16 hours incubation, cells were harvested and counted in a β-counter.
The percent suppression of proliferation by drugs was counted using the formula Percent inhibition =((cpm + drugs) - cpm Cult. Med)/((cpm - drugs) - cpm Cult. Med.)x 100 [formula]
For orientation: Incorporation of labelled thymidine or its analogues reports DNA synthesis.

For assay [2], the system named is Highly purified T cells. As to the kind of experiment: T cell proliferation induced by anti-CD3 mAb + PMA (BrdU incorporation). The format is cell-based, Human. Particulars: Homo sapiens, T-cell.
Source text: as §1
(§2) T cells were purified by removing non-T cells. Briefly,monocytes were removed by cold agglutination. The resulting lymphoid cells were further purified by a cell enrichment immunocolumn [Cellect Human T (Biotex, Edmonton, Alberta, Canada)] by a process of negative selection.
(§3) Measurements of T cell proliferations induced by anti-CD3 mAb + PMA or anti-CD28 mAb + PMA
(§4) Highly purified T cells (10^6/ml) were stimulated by immobilized anti-CD3 àr anti-CD28 mAb in the presence of PMA. Anti-CD3 mAb (CLB-CD3; CLB, Amsterdam, The Netherlands) were fixed on the 96-microwell plates by incubating the wells with 50 µl of mAb solution (1/800 dilution in culture medium). Anti-CD28 mAb (CLB-CD28; CLB, Amsterdam, The Netherlands) 50 µl (1/650 dilution in culture medium) was added directly to the wells. Further, 20 µl PMA (Sigma, St. Louis, MO, USA) solution (final concentration: 0.5 ng/ml) was added. Subsequently, 20 µl of immunosuppressants were added by serial dilution in triplicate wells. Finally 100 µl of the T cell suspension (10^6/ml) was added. After 48-hour incubation at 37EC in 5% CO2 20 Φl BrdU (100 ΦM solution) (Cell Proliferation Elisa, Boehringer-Mannheim Belgium) was added to each well. After a further overnight incubation the T cell proliferation was measured using a colorimetric immunoassay for qualification of cell proliferation based on measurements of the incorporation of BrdU during DNAsynthesis. The optical density (OD) was measured by a Behring EL311 plate reader at 450 nm (reference wavelength: 690 nm). The percent suppression of proliferation by drugs was counted using the formula: Per cent inhibition =((OD + drugs) - (OD Cult. Med.))/((OD - drugs) - (OD Cult. Med.))x 100 [formula]

For assay [3], the system named is Highly purified T cells. As to the kind of experiment: T cell proliferation induced by anti-CD28 mAb + PMA (BrdU incorporation). It is filed as cell-based, Human. Particulars: Homo sapiens, T-cell.
Source text: as §1, §2, §3, §4

Where [4] appears, read: Table II, read-out: IC50 in µM of pteridine derivative MLR.
Setting [5] is: untitled structure table, no unit printed there, same values in Table II as IC50 in µM, read-out: MLR.
[6] abbreviates: Table II, read-out: IC50 in µM of pteridine derivative ACD3.
The mark [7] stands for this setting: untitled structure table, no unit printed there, same values in Table II as IC50 in µM, read-out: aCD3.
The mark [8] stands for this setting: Table II, read-out: IC50 in µM of pteridine derivative aCD28.
Setting [9] is: untitled structure table, no unit printed there, same values in Table II as IC50 in µM, read-out: aCD28.
Where [10] appears, read: Table IV, known pteridine derivatives, IC50 subranges, read-out: MLR.
The mark [11] stands for this setting: Table IV, known pteridine derivatives, IC50 subranges, read-out: aCD3.
[12] abbreviates: Table IV, known pteridine derivatives, IC50 subranges, read-out: aCD28.
Where [13] appears, read: untitled structure table, IC50 subranges, read-out: MLR.
Where [14] appears, read: untitled structure table, IC50 subranges, read-out: aCD3.
The mark [15] stands for this setting: untitled structure table, IC50 subranges, read-out: aCD28.

Structures are written as SMILES. Where two headings read alike, the source gives them in different places. Bounds are passed on as bounds.

With `COc1ccc(-c2cnc3nc(N)nc(N(C)C)c3n2)cc1` [Compound 16, 2-amino-4-dimethylamino-6-(4-methoxyphenyl)pteridine], the IC50 was 12 µM in assay [1] (setting [4]); 12 µM in assay [1] (setting [5]); 7.5 µM in the assay with Highly purified T cells [2] (setting [6]); 7.5 µM in the assay with Highly purified T cells [2] (setting [7]); 7.5 µM in the assay with Highly purified T cells [3] (setting [8]); 7.5 µM with Highly purified T cells [3] (setting [9]).
Turning to `Nc1nc(NCCO)nc2ncc(-c3ccccc3)nc12` [Compound 10, 2-hydroxyethylamino-4-amino-6-phenylpteridine], the IC50 (in assay [1] (setting [4]); in assay [1] (setting [5]); with Highly purified T cells [2] (setting [6]); in the assay on Highly purified T cells [2] (setting [7]); with Highly purified T cells [3] (setting [8]); with Highly purified T cells [3] (setting [9])) was 125 µM in each case.
As to `CCCN(CCC)c1nc(N)nc2ncc(-c3ccc(Cl)cc3)nc12` [Compound 30, 2-amino-4-dipropylamino-6-(4-chlorophenyl)pteridine], the IC50 in assay [1] (setting [4]) is 13 µM; in assay [1] (setting [5]), 13 µM; with Highly purified T cells [2] (setting [6]) it was 9.7 µM; in the assay with Highly purified T cells [2] (setting [7]), 9.7 µM; in the assay on Highly purified T cells [3] (setting [8]), 6.7 µM; in the assay with Highly purified T cells [3] (setting [9]), 6.7 µM.
Regarding `CSCc1cnc2nc(N)[nH]c(=O)c2n1` [CH2S CH3, reference compound], the IC50 (in assay [1] (setting [10]); in the assay on Highly purified T cells [2] (setting [11]); with Highly purified T cells [3] (setting [12])) was over 151 µM throughout.
For `COCc1cnc2nc(N)nc(N)c2n1` [CH2 O CH3, reference compound], the IC50 (in assay [1] (setting [10]); with Highly purified T cells [2] (setting [11]); in the assay on Highly purified T cells [3] (setting [12])) was over 151 µM throughout.
Regarding `Nc1nc(N2CCNCC2)c2nc(-c3ccc(Cl)cc3)cnc2n1` [Compound 47, 2-amino-4-piperazino-6-(4-chlorophenyl)pteridine], the IC50 in assay [1] (setting [4]) amounted to 2 µM; in assay [1] (setting [5]) it was 2 µM; with Highly purified T cells [2] (setting [6]), 20 µM; with Highly purified T cells [2] (setting [7]), 20 µM; in the assay on Highly purified T cells [3] (setting [8]), 15 µM; with Highly purified T cells [3] (setting [9]) it was 15 µM.
`CC(C)C(=O)NCc1cnc2nc(N)nc(N)c2n1` [CH2 NH CO CH (CH3)2, reference compound]: the IC50 (in assay [1] (setting [10]); with Highly purified T cells [2] (setting [11]); in the assay on Highly purified T cells [3] (setting [12])) was over 151 µM throughout.
On to `Nc1nc(N)c2nc(-c3ccc(Cl)cc3)cnc2n1` [Compound 9, 2,4-diamino-6-(4-chlorophenyl)pteridine], for which the IC50 in assay [1] (setting [4]) worked out at 125 µM; in assay [1] (setting [5]) it was 125 µM; in the assay with Highly purified T cells [2] (setting [6]), 110 µM; in the assay on Highly purified T cells [2] (setting [7]), 110 µM; in the assay on Highly purified T cells [3] (setting [8]), 110 µM; in the assay with Highly purified T cells [3] (setting [9]), 110 µM.
With `Nc1nc(N2CCCCC2)c2nc(-c3ccc(Cl)cc3)cnc2n1` [Compound 38, 2-amino-4-piperidino-6-(4-chlorophenyl)pteridine], the IC50 in assay [1] (setting [4]) was 15 µM; in assay [1] (setting [5]), 15 µM; in the assay on Highly purified T cells [2] (setting [6]), 70 µM; in the assay with Highly purified T cells [2] (setting [7]) it was 70 µM; in the assay with Highly purified T cells [3] (setting [8]) it was 25 µM; in the assay with Highly purified T cells [3] (setting [9]) it was 25 µM.
As for `Nc1nc(N)c2nc(-c3ccccc3)cnc2n1` [Compound 5, 2,4-diamino-6-phenyl pteridine], the IC50 (in assay [1] (setting [4]); in assay [1] (setting [5]); in the assay on Highly purified T cells [2] (setting [6]); in the assay on Highly purified T cells [2] (setting [7]); with Highly purified T cells [3] (setting [8]); with Highly purified T cells [3] (setting [9])) was over 200 µM throughout.
On to `Nc1nc(N2CCOCC2)c2nc(-c3ccccc3)cnc2n1` [Compound 33, 2-amino-4-morpholino-6-phenylpteridine], for which the IC50 was 15 µM in assay [1] (setting [4]); 15 µM in assay [1] (setting [5]); 100 µM with Highly purified T cells [2] (setting [6]); 100 µM with Highly purified T cells [2] (setting [7]); 20 µM with Highly purified T cells [3] (setting [8]); 20 µM with Highly purified T cells [3] (setting [9]).
As for `CN(Cc1cnc2nc(N)nc(N)c2n1)c1ccc(C(=O)N[C@@H](CCC(=O)O)C(=O)O)cc1` [MTX, methatroxate, reference compound], the IC50 in assay [1] (Table III, comparison immunosuppressants, read-out: IC50 MLR) is 10 µM; in the assay with Highly purified T cells [2] (Table III, comparison immunosuppressants, read-out: IC50 aCD3), over 200 µM; in the assay on Highly purified T cells [3] (Table III, comparison immunosuppressants, read-out: IC50 aCD28) it was over 200 µM.
Turning to `COc1nc(N)nc2ncc(C(O)C(C)O)nc12` (stereo not drawn) [Compound 4, 2-amino-4-methoxy-6-(1,2-dihydroxypropyl)pteridine], the IC50 in assay [1] (setting [4]) was over 200 µM; in assay [1] (setting [5]), over 200 µM; with Highly purified T cells [2] (setting [6]), 140 µM; in the assay with Highly purified T cells [2] (setting [7]), 140 µM; with Highly purified T cells [3] (setting [8]), 110 µM; in the assay on Highly purified T cells [3] (setting [9]), 110 µM.
With `CCOc1nc(N)nc2ncc(-c3ccccc3)nc12` [Compound 61, 2-amino-4-ethoxy-6-phenylpteridine], the IC50 (in assay [1] (setting [13]); with Highly purified T cells [2] (setting [14]); in the assay with Highly purified T cells [3] (setting [15])) was 1 to 15 µM throughout.
`COc1ccc(-c2cnc3nc(NC(C)=O)nc(OC(C)C)c3n2)cc1OC` [Compound 65, 2-acetamido-4-i-propoxy-6-(3,4-dimethoxyphenyl)pteridine]: the IC50 in assay [1] (setting [13]) fell in the range of 1 to 15 µM; in the assay with Highly purified T cells [2] (setting [14]), 16 to 150 µM; in the assay on Highly purified T cells [3] (setting [15]) it was 16 to 150 µM.
Turning to `COc1ccc(-c2cnc3nc(N)nc(N)c3n2)cc1` [Compound 8, 2,4-diamino-6-(4-methoxyphenyl)pteridine], the IC50 in assay [1] (setting [4]) is 150 µM; in assay [1] (setting [5]), over 150 µM; in the assay with Highly purified T cells [2] (setting [6]) it was 125 µM; in the assay on Highly purified T cells [2] (setting [7]) it was 125 µM; in the assay on Highly purified T cells [3] (setting [8]) it was 22 µM; with Highly purified T cells [3] (setting [9]) it was 22 µM.
On to `CCN(CC)c1nc(N)nc2ncc(-c3ccc(Cl)cc3)nc12` [Compound 22, 2-amino-4-diethylamino-6-(4-chlorophenyl) pteridine], for which the IC50 in assay [1] (setting [4]) was determined as 17 µM; in assay [1] (setting [5]), 17 µM; in the assay on Highly purified T cells [2] (setting [6]) it was 50 µM; in the assay with Highly purified T cells [2] (setting [7]) it was 50 µM; in the assay with Highly purified T cells [3] (setting [8]), 20 µM; with Highly purified T cells [3] (setting [9]), 20 µM.
With `CCCOCc1cnc2nc(N)nc(N)c2n1` [CH2 O CH2CH2CH3, reference compound], the IC50 (in assay [1] (setting [10]); with Highly purified T cells [2] (setting [11]); in the assay with Highly purified T cells [3] (setting [12])) was over 151 µM in each case.
On to `CCN(CC)c1nc(N)nc2ncc(-c3ccc(OC)c(OC)c3)nc12` [Compound 24, 2-amino-4-diethylamino-6-(3,4-dimethoxyphenyl) pteridine], for which the IC50 turned out to be 0.08 µM in assay [1] (setting [4]); 0.08 µM in assay [1] (setting [5]); 0.5 µM in the assay on Highly purified T cells [2] (setting [6]); 0.5 µM with Highly purified T cells [2] (setting [7]); 0.1 µM with Highly purified T cells [3] (setting [8]); 0.1 µM in the assay with Highly purified T cells [3] (setting [9]).
`CCCCCOc1nc(N)nc2ncc(C(Br)C(Br)c3ccccc3)nc12` (stereo not drawn) [Compound 2, 2-amino-4-n-pentoxy-6-(1,2-dibromo-2-phenylethyl)pteridine]: the IC50 in assay [1] (setting [4]) is 12 µM; in assay [1] (setting [5]), 12 µM; in the assay on Highly purified T cells [2] (setting [6]), 4 µM; with Highly purified T cells [2] (setting [7]), 4 µM; in the assay on Highly purified T cells [3] (setting [8]) it was 12 µM; in the assay on Highly purified T cells [3] (setting [9]), 12 µM.
